Experimental data reported in US20080103198A1, “METHODS FOR TREATMENT OF COCHLEAR AND VESTIBULAR DISORDERS” (priority 2006, published 2008).
Several values for one entry are separate records, joined by “and”; a condition that tells them apart may be missing. Equal entries are not always repeated.

What was measured:
Assay type in all cases: in vivo, rat
Li-pilo induced SE [1] = test: Lithium-pilocarpine model (Example 1): Timm staining, mossy fiber sprouting
Procedure: At 2 months after the onset of spontaneous recurrent seizures, mossy fiber sprouting was examined on rats in the chronic period exposed to the test compound or DZP and in 3 saline-saline rats. Animals were deeply anaesthetized and perfused transcardially with saline followed by 100 ml of 1.15% (w/v) Na2S in 0.1 M phosphate buffer, and 100 ml of 4% (v/v) formaldehyde in 0.1 M phosphate buffer. Brains were removed from skull, post-fixed in 4% formaldehyde during 3-5 h and 40 μm sections were cut on a sliding vibratome and mounted on gelatin-coated slides.
The following day, sections were developed in the dark in a 26° C. solution of 50% (w/v) arabic gum (160 ml), sodium citrate buffer (30 ml), 5.7% (w/v) hydroquinone (80 ml) and 10% (w/v) silver nitrate (2.5 ml) during 40-45 min. The sections were then rinsed with tap water at 40° C. during at least 45 min, rinsed rapidly with distilled water and allowed to dry. They were dehydrated in ethanol and coverslipped.
Mossy fiber sprouting was evaluated according to criteria previously described in dorsal hippocampus (Cavazos et al., 1991, J Neurosci 11:2795-2803), which are follows: 0—no granules between the tips and crest of the DG; 1—sparse granules in the supragranular region in a patchy distribution between the tips and crest of DG; 2—more numerous granules in a continuous distribution between the tips and crest of DG; 3—prominent granules in a continuous pattern between tips and crest, with occasional patches of confluent granules between tips and crest; 4—prominent granules that form a confluent dense laminar band between tips and crest and 5—confluent dense laminar band of granules that extends into the inner molecular layer.

Li-pilo induced SE [2] = test: Lithium-pilocarpine model (Example 1): quantification of cell densities
Procedure: Quantification of cell densities was performed at […] after SE on 8 pilo-DZP, 8 pilo-test10, 7 pilo-test30, 7 pilo-test60, and 6 saline-saline rats. At 14 days after SE, animals were deeply anesthetized with 1.8 g/kg pentobarbital (Dolethal®, Vetoquinol, Lure, France. Brains were then removed and frozen. Serial 20 μm slices were cut in a cryostat, air-dried during several days before thionine staining.
Quantification of cell densities was performed with a 10×10 boxes 1 cm^2 microscopic grid on coronal sections according to the stereotaxic coordinates of the rat brain atlas (Paxinos and Watson, 1986, The Rat brain in Stereotaxic Coordinates, 2nd ed. Academic Press, San Diego). Cell counts were performed twice in a blind manner and were the average of at least 3 values from 2 adjacent sections in each individual animal. Counts involved only cells larger than 10 μm, smaller ones being considered as glial cells.
(§1) For the comparison of the characteristics of SE in pilo-saline and pilo-test compound animals, a non-paired Student's t-test was used. The comparison between the number of rats seizing in both groups was performed by means of a Chi square test. For neuronal damage, statistical analysis between groups was performed using ANOVA followed by a Fisher's test for multiple comparisons using the Statview software (Fisher R A, 1946a, Statistical Methods for Research Workers (10th edition) Oliver & Boyd, Edinburgh; Fisher R A, 1946b, The Design of Experiments (4th edition) Oliver & Boyd, Edinburgh) Behavioral and EEG characteristics of lithium-pitocarpine status epilepticus

Li-pilo induced SE [3] = test: Lithium-pilocarpine model of temporal lobe epilepsy (Example 1): mortality and spontaneous recurrent seizures
From the text: The model induced in rats by pilocarpine associated with lithium (Li-Pilo) reproduces most of the clinical and neurophysiological features of human temporal lobe epilepsy (Turski et al., 1989, Synapse 3:154-171; Cavalheiro, 1995, Ital J Neurol Sci 16:33-37). In adult rats, the systemic administration of pilocarpine leads to status epilepticus (SE). The lethality rate reaches 30-50% during the first days. In the surviving animals, neuronal damage predominates within the hippocampal formation, the piriform and entorhinal cortices, thalamus, amygdaloid complex, neocortex and substantia nigra.
Male Wistar rats weighing 225-250 g, provided by Janvier Breeding Center (Le Genest-St-lste, France) were housed under controlled standard conditions (light/dark cycle, 7.00 a.m.-7.00 p.m. lights on), with food and water available ad libitum. All animal experimentation was performed in accordance with the rules of the European Communities Council Directive of Nov. 24, 1986 (86/609/EEC), and the French Department of Agriculture (License No 67-97). For electrode implantation, rats were anesthetized by an i.p. injection of 2.5 mg/kg diazepam (DZP, Valium, Roche, France) and […] ketamine chlorhydrate (Imalgene 1000, Rhone Merrieux, France). Four single-contact recording electrodes were placed on the skull, over the parietal cortex, two on each side.
All rats received lithium chloride (3 meq/kg, i.p., Sigma, St Louis, Mo., U.S.A.); about 20 h later, animals were placed into plexiglas boxes, in order to record baseline cortical EEG. Methylscopolamine bromide (1 mg/kg, s.c., Sigma) was administered to limit the peripheral effects of the convulsant. SE was induced by injecting pilocarpine hydrochloride (25 mg/kg, s.c., Sigma) 30 min after methyl-scopolamine. The bilateral EEG cortical activity was recorded during the whole duration of SE and behavioral changes were noted.
The effects of increasing doses of the test compound were studied on 3 groups of rats. The animals of the first group received 10 mg/kg of the test compound, i.p., 1 h after the onset of SE (pilo-test10) while the animals of groups 2 and 3 received 30 and 60 mg/kg of the test compound (pilo-test30 and pilo-test60), respectively.
Another group was injected with 2 mg/kg diazepam (DZP, i.m.) at 1 h after the onset of SE which are our standard treatment to improve animals survival after SE (pilo-DZP). The control group received saline instead of pilocarpine and the test compound (saline-saline). The pilo-test compound rats surviving SE were then injected about 10 h after the first test compound injection with a second i.p. injection of the same dose of the test compound and were maintained under a twice daily treatment with the test compound for 6 additional days. Pilo-DZP received a second injection of 1 mg/kg DZP on the day of SE at about 10 h after the first one. Thereafter, Pilo-DZP and saline-saline rats received twice daily an equivalent volume of saline.
The effects of the test compound on the EEG and on the latency to occurrence of SRS were investigated by daily video recording of the animals for 10 h per day and the recording of the electrographic activity twice a week for 8 h.
as §1

[4] = DZP, compared to saline-saline rats

CN1C(=O)CN=C(c2ccccc2)c2cc(Cl)ccc21 [DZP, diazepam, reference compound]
Timm score, upper blade of dentate gyrus (mean) (Li-pilo induced SE [1]; DZP, n=9): 2.8±0.8
cell loss, CA3a (Li-pilo induced SE [2]; [4]): 54%
cell loss, CA3b (Li-pilo induced SE [2]; [4]): 31%
cell loss, dorsal entorhinal cortex layer II (Li-pilo induced SE [2]; [4]): 9%
cell loss, dorsal entorhinal cortex layers III-IV (Li-pilo induced SE [2]; [4]): 15%
cell loss, hilus of dentate gyrus (Li-pilo induced SE [2]; [4]): 73%
cell loss, hippocampus CA1 pyramidal cell layer (Li-pilo induced SE [2]; [4]): 70% and 75%
cell loss, lateral thalamic nucleus (Li-pilo induced SE [2]; [4]): 91%
cell loss, mediodorsal thalamic nucleus (Li-pilo induced SE [2]; [4]): 56%
cell loss, piriform cortex layer II (Li-pilo induced SE [2]; [4]): 53%
cell loss, piriform cortex layers III-IV (Li-pilo induced SE [2]; [4]): total
cell loss, ventral entorhinal cortex layers III-IV (Li-pilo induced SE [2]; [4]): 44%
damage, ventral entorhinal cortex layer II (Li-pilo induced SE [2]; [4]): totally preserved
mortality during the first 48 h after SE (Li-pilo induced SE [3]; DZP 2 mg/kg i.m. 1 h after SE onset): 23%
latency to SRS (Li-pilo induced SE [3]; DZP 2 mg/kg i.m., n=9): 18.2 ± 6.9 days
frequency of stage IV-V SRS (Li-pilo induced SE [3]; DZP, first week): 11.3 SRS per week

NC(=O)OC[C@@H](O)c1ccccc1Cl [test compound]
Timm score, upper blade of dentate gyrus (mean) (Li-pilo induced SE [1]; 10 mg/kg, n=7): 1.5±0.6
Timm score, upper blade of dentate gyrus (mean) (Li-pilo induced SE [1]; 30 mg/kg, n=10): 2.6±1.0
Timm score (Li-pilo induced SE [1]; 60 mg/kg, subgroup with early SRS occurrence, n=6): 1.8±0.6
Timm score (Li-pilo induced SE [1]; 60 mg/kg, subgroup with late occurrence or absence of SRS, n=5): 1.2±0.6
Timm score, upper blade of dentate gyrus (mean) (Li-pilo induced SE [1]; 60 mg/kg, whole group, n=11): 1.5±0.7
more damage compared with pilo-DZP rats, dorsal entorhinal cortex layers III-IV (Li-pilo induced SE [2]; 10 mg/kg): 28%
more damage compared with pilo-DZP rats, ventral entorhinal cortex layers III-IV (Li-pilo induced SE [2]; 10 mg/kg): 35%
neuroprotection compared to pilo-DZP rats, ventral entorhinal cortex layers III-IV (Li-pilo induced SE [2]; 60 mg/kg): 31%
neuroprotection in CA3b (Li-pilo induced SE [2]; 60 mg/kg): significantly neuroprotective
reduction of neuronal damage recorded in pilo-DZP rats, piriform cortex layer II (Li-pilo induced SE [2]; 60 mg/kg): 41%
reduction of neuronal damage recorded in pilo-DZP rats, piriform cortex layers III-IV (Li-pilo induced SE [2]; 60 mg/kg): 44%
reduction of neuronal damage, lateral thalamic nucleus (Li-pilo induced SE [2]; 60 mg/kg): 65%
reduction of neuronal damage, mediodorsal thalamic nucleus (Li-pilo induced SE [2]; 60 mg/kg): 42%
neuroprotection in CA3a area (Li-pilo induced SE [2]; 10, 30, 60 mg/kg): did not afford any protection
cell loss, hilus of dentate gyrus (Li-pilo induced SE [2]; pilo-test compound animals (10-60 mg/kg)): 69-72%
cell loss, CA1 pyramidal layer (Li-pilo induced SE [2]; test compound 30 mg/kg): 35%
cell loss, CA1 pyramidal layer (Li-pilo induced SE [2]; test compound 60 mg/kg): 16%
latency to SRS (Li-pilo induced SE [3]; 10 mg/kg i.p., 7-day treatment, n=7): 15.4 ± 5.1 days
frequency of stage III SRS (Li-pilo induced SE [3]; 10 mg/kg, weeks 3 and 4): significantly increased over pilo-DZP values
latency to SRS (Li-pilo induced SE [3]; 30 mg/kg i.p., 7-day treatment, n=10): 18.9 ± 9.0 days
frequency of stage IV-V SRS (Li-pilo induced SE [3]; 60 mg/kg group with early SRS onset, weeks 2-4): 0.6-0.9 seizure per week
delay without becoming epileptic post-SE (Li-pilo induced SE [3]; 60 mg/kg, one rat): > 9 months
mean delay to epilepsy relative to the other groups of animals (Li-pilo induced SE [3]; 60 mg/kg, subgroup of animals): about 9 fold
latency to SRS (Li-pilo induced SE [3]; 60 mg/kg, subgroup with latency similar to other groups, n=7): 17.6 ± 8.7 days
latency to SRS (mean) (Li-pilo induced SE [3]; 60 mg/kg, subgroup with much longer delay, n=4): 149.8 ± 36.0 days
rats with delayed occurrence of spontaneous seizures (Li-pilo induced SE [3]; 60 mg/kg, 4 out of 11): 36%
frequency of stage IV-V SRS (Li-pilo induced SE [3]; 10, 30 and 60 mg/kg (early SRS onset) groups, first week): 2.3-6.1 SRS per week
mortality during the first 48 h after SE (Li-pilo induced SE [3]; test compound 10 mg/kg i.p. 1 h after SE onset): 26%
mortality during the first 48 h after SE (Li-pilo induced SE [3]; test compound 30 mg/kg i.p. 1 h after SE onset): 20%
mortality during the first 48 h after SE (Li-pilo induced SE [3]; test compound 60 mg/kg i.p. 1 h after SE onset): 4%
